These results are taken from patent publication EP4289427A1, “DIHYDRO[1,8]NAPHTHYRIDIN-7-ONE AND PYRIDO[3,2-B][1,4]OXAZIN-3-ONE FOR USE IN TREATING CANCER, AND METASTASES IN PARTICULAR” (Anagenesis Biotechnologies, priority 2022, dated 2023).

One data set deals with 4T1 cells. Kind of data set: Cytotoxicity assay (CellTiter-Glo 2.0) on 4T1 cells. Particulars: incubation 2 days; for IC50: Mus musculus, 48 h. It is filed as cell-based, Mouse. The protocol:
(§1) Cytotoxicity assays consist in treating cells with compounds and assessing remaining viability after a defined incubation time, depending on the cell line. CellTiter-Glo® 2.0 reagent allows viability measurement by quantification of ATP present, which is an indicator of metabolically active cells.
(§2) The cancer cell lines were cultivated in their respective growth medium (see tables 6a and 6b). On day 0 of the cytotoxicity assay, the cells were harvested and seeded into a 384-well plate at a defined density in their respective growth medium (see tables 6a and 6b). Compounds to be tested were then added onto the cells and incubated for a defined duration (see tables 6a and 6b). Following incubation, CellTiter-Glo® 2.0 reagent (cat.no. G9241 from Promega) was added into the wells (vol/vol, according to the manufacturer's recommendations), plates were gently shaken and incubated for 10 minutes in the dark at room temperature. Bioluminescence was then measured with a multimode plate reader (Victor Nivo from Perkin Elmer), and cell viability and relative IC50 were determined. Table 6a: Cancer cell characteristics, culture and cytotoxic assay conditions
(In general: In ATP-based viability assays light output follows the ATP content of the culture.)

For the next data set, the system named is RD cells. Kind of data set: Cytotoxicity assay (CellTiter-Glo 2.0) on RD cells. It is filed as cell-based, Human. As to conditions: for IC50: Homo sapiens. The protocol: as §1, §2
For a further data set, the system named is HUVECs. In words: Tube formation assay (anti-angiogenic activity). As to conditions: for IC50: Homo sapiens, HUVEC. It is filed as cell-based, human. From the text: Angiogenesis is a phenomenon that includes different processes, such as endothelial cell proliferation, migration and differentiation that lead to the formation of new blood vessels. Tube formation assay is a standard in vitro test to assess angiogenesis: briefly, human Umbilical Vein Endothelial cells (hereafter "HUVECs") cultivated on a gelled basement matrix spontaneously proliferate, migrate and differentiate to form tube-like structures, that appear elongated and that connect to each other to form a network.
HUVECs were cultivated in Endothelial Cell Growth Medium (cat.no. C-22010 from Promocell) supplemented with 1% PenStrep (hereafter "HUVEC medium"). On day 0, HUVECs were harvested and transferred into a 384-well plate precoated with 10 µl/well of Cultrex UltiMatrix Reduced Growth factor basement membrane (cat.no. BME001-10 from BioTechne), according to the manufacturer's instructions, at a density of 5000 cells/well in HUVEC medium. Compounds to be tested were then added onto the cells and incubated for 16 to 18 hours at 37°C. After this incubation period, the cells were stained with calcein-AM (cat.no. 10462052 from Fisher Scientific) and pictures were acquired using a confocal fluorescent microscope (IXM from Molecular Devices). Tube formation was measured with MetaXpress® Software.

A further data set relates to MDA-MB-231 cells. In words: Cytotoxicity assay (CellTiter-Glo 2.0) on MDA-MB-231 cells. It is filed as cell-based, Human. As to conditions: incubation 3 days; for IC50: Homo sapiens, 72 h. The protocol: as §1, §2
A further data set concerns EoL-1 cells. In words: Cytotoxicity assay (CellTiter-Glo 2.0) on EoL-1 cells. It is filed as cell-based, Human. Particulars: incubation 1 day; for IC50: Homo sapiens, EOL1, 24 h. How it is done:
as §1, §2

The structures appear in SMILES notation.

By IC50 is commonly meant the concentration needed to halve the response being measured. Read a high IC50 as a need for much substance. `CSc1cc(Oc2ccnc3c2OCC(=O)N3)ccc1NC(=O)Nc1cc(C(C)(C)C)nn1-c1cccc(CN(C)C)c1` [Compound 041, 1-[5-tert-butyl-2-[3-(dimethylaminomethyl)phenyl]pyrazol-3-yl]-3-[2-methylsulfanyl-4-[(3-oxo-4H-pyrido[3,2-b][1,4]oxazin-8-yl)oxy]phenyl]urea]: the IC50 with 4T1 cells is below 1 µM; in the data set with RD cells (48 h, 2 day-treatment) it was 1 to 5 µM; in the data set on RD cells (96 h, 4 day-treatment), 1 to 5 µM; in the data set on HUVECs (incubation 16 to 18 hours), below 0.1 µM; in the data set on MDA-MB-231 cells it was 1 to 5 µM; in the data set on EoL-1 cells, 0.001 to 0.01 µM. Also, the Cytotoxicity entry in the data set with 4T1 cells, with RD cells (2 day-treatment), in the data set with RD cells (4 day-treatment), in the data set on MDA-MB-231 cells and in the data set on EoL-1 cells was “+++ (cytotoxicity ≥ 85%)” in each case. For the same compound, the Angiogenesis inhibition result in the data set on HUVECs (incubation 16 to 18 hours) was “+++ (angiogenesis inhibition ≥ 80%)”.
Take `CSc1cc(Oc2ccnc3c2CCC(=O)N3)ccc1NC(=O)Nc1cc(C(C)(C)C)nn1-c1ccccc1` [Compound 001, 1-(3-(tert-butyl)-1-phenyl-1H-pyrazol-5-yl)-3-(2-(methylthio)-4-((7-oxo-5,6,7,8-tetrahydro-1,8-naphthyridin-4-yl)oxy)phenyl)urea]: the IC50 in the data set with 4T1 cells was 1 to 5 µM; in the data set on RD cells (48 h, 2 day-treatment) it was 1 to 5 µM; in the data set with RD cells (96 h, 4 day-treatment) it was 1 to 5 µM; in the data set on HUVECs (incubation 16 to 18 hours), below 0.1 µM; with MDA-MB-231 cells it was 1 to 5 µM; in the data set with EoL-1 cells, 0.01 to 0.1 µM. In addition, the Cytotoxicity entry is on record as “+++ (cytotoxicity ≥ 85%)” in the data set with 4T1 cells; “+ (20 % ≤ cytotoxicity < 50%)” with RD cells (2 day-treatment); “++ (50% ≤ cytotoxicity < 85%)” with RD cells (4 day-treatment); “++ (50% ≤ cytotoxicity < 85%)” in the data set on MDA-MB-231 cells; “+++ (cytotoxicity ≥ 85%)” in the data set on EoL-1 cells. For the same compound, the Angiogenesis inhibition entry in the data set on HUVECs (incubation 16 to 18 hours) is recorded as “+++ (angiogenesis inhibition ≥ 80%)”.
Consider `CC(C)(C)c1cc(NC(=O)Nc2ccc(Oc3ccnc4c3OCC(=O)N4)cc2C(F)(F)F)on1` [Compound 037, 1-(3-tert-butylisoxazol-5-yl)-3-[4-[(3-oxo-4H-pyrido[3,2-b][1,4]oxazin-8-yl)oxy]-2-(trifluoromethyl)phenyl]urea], for which the IC50 in the data set with 4T1 cells was 1 to 5 µM; in the data set on RD cells (48 h, 2 day-treatment), 5 to 10 µM; in the data set with RD cells (96 h, 4 day-treatment) it was 1 to 5 µM; in the data set on HUVECs (incubation 16 to 18 hours) it was 0.1 to 0.5 µM; in the data set with MDA-MB-231 cells, 1 to 5 µM; with EoL-1 cells, 0.001 to 0.01 µM. Also, the Cytotoxicity entry is “+++ (cytotoxicity ≥ 85%)” in the data set with 4T1 cells; “++ (50% ≤ cytotoxicity < 85%)” in the data set with RD cells (2 day-treatment); “++ (50% ≤ cytotoxicity < 85%)” with RD cells (4 day-treatment); “++ (50% ≤ cytotoxicity < 85%)” with MDA-MB-231 cells; “+++ (cytotoxicity ≥ 85%)” in the data set on EoL-1 cells. Besides, the Angiogenesis inhibition result in the data set on HUVECs (incubation 16 to 18 hours) is on record as “++ (80% > angiogenesis inhibition ≥ 50%)”.
As for `CC(C)(C)c1cc(NC(=O)Nc2ccc(Oc3ccnc4c3OCC(=O)N4)cc2C(F)(F)F)n(-c2ccc(CCN3CCOCC3)cc2)n1` [Compound 053, 1-[5-tert-butyl-2-[4-(2-morpholinoethyl)phenyl]pyrazol-3-yl]-3-[4-[(3-oxo-4H-pyrido[3,2-b][1,4]oxazin-8-yl)oxy]-2-(trifluoromethyl)phenyl]urea], the IC50 was below 1 µM with 4T1 cells, below 0.1 µM in the data set with HUVECs (incubation 16 to 18 hours), 1 to 5 µM in the data set on MDA-MB-231 cells and 0.01 to 0.1 µM in the data set on EoL-1 cells. For the same compound, the Cytotoxicity result in the data set with 4T1 cells is “+++ (cytotoxicity ≥ 85%)”; in the data set on MDA-MB-231 cells it was “++ (50% ≤ cytotoxicity < 85%)”; in the data set with EoL-1 cells, “+++ (cytotoxicity ≥ 85%)”. In addition, in the data set on HUVECs (incubation 16 to 18 hours), the Angiogenesis inhibition entry is recorded as “+++ (angiogenesis inhibition ≥ 80%)”.
As to `COc1cc2nccc(Oc3ccc(NC(=O)Nc4cc(C)on4)c(Cl)c3)c2cc1OC` [Tivozanib, reference compound], the IC50 in the data set with 4T1 cells (commercial kinase inhibitors) is 5 to 10 µM; in the data set on RD cells (48 h, 2 day-treatment, commercial kinase inhibitors) it was at least 10 µM; in the data set on RD cells (96 h, 4 day-treatment, commercial kinase inhibitors) it was at least 10 µM; with HUVECs (commercial kinase inhibitors) it was 0.1 to 0.5 µM; with MDA-MB-231 cells (commercial kinase inhibitors), 5 to 10 µM. Besides, the Cytotoxicity entry is given as “+++ (cytotoxicity ≥ 85 %)” with 4T1 cells (commercial kinase inhibitors); “- (cytotoxicity < 20 %)” with RD cells (2 day-treatment, commercial kinase inhibitors); “- (cytotoxicity < 20 %)” in the data set with RD cells (4 day-treatment, commercial kinase inhibitors); “++ (50 % ≤ cytotoxicity < 85 %)” with MDA-MB-231 cells (commercial kinase inhibitors). Also, in the data set with HUVECs (commercial kinase inhibitors), the Angiogenesis inhibition entry is recorded as “+ (50% > angiogenesis inhibition ≥ 20%)”.
As for `CC(C)(C)c1cc(NC(=O)Nc2ccc(Oc3ccnc4c3CCC(=O)N4)cc2C(F)(F)F)n(-c2ccc(F)cc2F)n1` [Compound 029, 1-[5-tert-butyl-2-(2,4-difluorophenyl)pyrazol-3-yl]-3-[4-[(7-oxo-6,8-dihydro-5H-1,8-naphthyridin-4-yl)oxy]-2-(trifluoromethyl)phenyl]urea], the IC50 fell in the range of 1 to 5 µM in the data set with 4T1 cells, 0.1 to 0.5 µM in the data set with HUVECs (incubation 16 to 18 hours), 5 to 10 µM in the data set with MDA-MB-231 cells and 0.01 to 0.1 µM in the data set with EoL-1 cells. Also, the Cytotoxicity result in the data set on 4T1 cells was “++ (50% ≤ cytotoxicity < 85%)”; in the data set with MDA-MB-231 cells, “+ (20 % ≤ cytotoxicity < 50%)”; in the data set on EoL-1 cells, “+++ (cytotoxicity ≥ 85%)”. Moreover, the Angiogenesis inhibition entry with HUVECs (incubation 16 to 18 hours) is reported as “++ (80% > angiogenesis inhibition ≥ 50%)”.
For `CSc1cc(Oc2ccnc3c2OCC(=O)N3)ccc1NC(=O)Nc1ncc(C(C)(C)C)o1` [Compound 025], in the data set with EoL-1 cells, the IC50 was below 0.001 µM and the Cytotoxicity entry is “+++ (cytotoxicity ≥ 85%)”.
As to `Cc1ccc(F)c(NC(=O)Nc2ccc(-c3cccc4[nH]nc(N)c34)cc2)c1` [Linifanib, reference compound], in the data set with HUVECs (commercial kinase inhibitors), the IC50 is below 0.1 µM and the Angiogenesis inhibition result is given as “+ (50% > angiogenesis inhibition ≥ 20%)”.
Regarding `CSc1cc(Oc2ccnc3c2CCC(=O)N3)ccc1NC(=O)Nc1cc(C(C)(C)C)nn1-c1cccc(Cl)c1` [Compound 003, 1-(3-(tert-butyl)-1-(3-chlorophenyl)-1H-pyrazol-5-yl)-3-(2-(methylthio)-4-((7-oxo-5,6,7,8-tetrahydro-1,8-naphthyridin-4-yl)oxy)phenyl)urea], the IC50 was below 1 µM with 4T1 cells; 1 to 5 µM in the data set on RD cells (48 h, 2 day-treatment); 5 to 10 µM with RD cells (96 h, 4 day-treatment); 1 to 5 µM in the data set with MDA-MB-231 cells. Also, the Cytotoxicity entry in the data set on 4T1 cells is “+++ (cytotoxicity ≥ 85%)”; in the data set on RD cells (2 day-treatment) it was “+ (20 % ≤ cytotoxicity < 50%)”; in the data set with RD cells (4 day-treatment) it was “+ (20 % ≤ cytotoxicity < 50%)”; with MDA-MB-231 cells it was “++ (50% ≤ cytotoxicity < 85%)”.
As to `COc1cc2nccc(Oc3ccc(NC(=O)NC4CC4)c(Cl)c3)c2cc1C(N)=O` [Lenvatinib, reference compound], the IC50 is 1 to 5 µM with 4T1 cells (commercial kinase inhibitors), below 0.1 µM in the data set with HUVECs (commercial kinase inhibitors), at least 10 µM in the data set with MDA-MB-231 cells (commercial kinase inhibitors) and 0.001 to 0.01 µM in the data set on EoL-1 cells (commercial kinase inhibitors). The Cytotoxicity result is listed as “+ (20 % ≤ cytotoxicity < 50 %)” in the data set with 4T1 cells (commercial kinase inhibitors), “- (cytotoxicity < 20 %)” in the data set with MDA-MB-231 cells (commercial kinase inhibitors) and “+++ (cytotoxicity ≥ 85%)” in the data set on EoL-1 cells (commercial kinase inhibitors). In the data set on HUVECs (commercial kinase inhibitors), the Angiogenesis inhibition result is given as “++ (80% > angiogenesis inhibition ≥ 50%)”.
With `CC(C)(C)c1coc(NC(=O)Nc2ccc(Oc3ccnc4c3CCC(=O)N4)cc2C(F)(F)F)n1` [Compound 036], the IC50 in the data set on 4T1 cells is at least 10 µM; with RD cells (48 h, 2 day-treatment) it was 1 to 5 µM; with RD cells (96 h, 4 day-treatment), 1 to 5 µM; in the data set with MDA-MB-231 cells it was 5 to 10 µM; in the data set with EoL-1 cells, at least 0.1 µM. The Cytotoxicity entry is listed as “- (cytotoxicity < 20%)” in the data set on 4T1 cells; “+ (20 % ≤ cytotoxicity < 50%)” in the data set on RD cells (2 day-treatment); “- (cytotoxicity < 20%)” in the data set with RD cells (4 day-treatment); “+ (20 % ≤ cytotoxicity < 50%)” with MDA-MB-231 cells; “+ (20 % ≤ cytotoxicity < 50%)” in the data set with EoL-1 cells.
